According to patent US20080045547A1, “Salts And Co-Crystals of Pyrazolopyrimidine Compounds, Compositions Thereof And Methods For Their Production And Use” (priority 2006, published 2008):
Several values for one entry are separate records, joined by “and”; a condition that tells them apart may be missing. Equal entries are not always repeated.

Legend:
[1] = Pharmacokinetics of indiplon after oral administration of free base or HBr co-crystal suspension; type: in vivo, male beagle dogs; conditions: male dogs; for AUC(0-t) / Cmax / Tmax: single oral dose 5 mg free base/kg, 0.5% methylcellulose suspension
Experimental: The purpose of this study was to determine the pharmacokinetics of indiplon following oral administration of the free base and the HBr co-crystal in a suspension to male beagle dogs.
The test compounds used in the study were the free base and […] of indiplon. The compounds were stored at approximately 2-8° C.
Five male purebred beagles were transferred to the study from a stock colony. Each animal was identified with an individually numbered ear tattoo. The animals were acclimated for 5 days. At the time of dose administration, animals were young adult/adult age. During acclimation and the test period, animals were individually housed in wire-mesh enclosures with coated rod-bottom floors. Animals were not comingled for at least 24 hours after each dose administration to allow monitoring of any test compound-related effects. Animals had access to non-certified Canine Diet #5L03 (PMI Feeds, Inc.) ad libitum, except as specified for dose administration.
(§1) The test compounds were prepared in 0.5% methylcellulose. The target concentrations of the free base and HBr salt were 1.0 and 1.34 mg/mL (equivalent to 1 mg of the free base), respectively. The liquid suspensions were administered via oral gavage. Prior to removing the gavage tube, the tube was flushed with approximately 5 mL of water.
(§2) Blood (approximately 2 mL) was collected from a jugular vein via syringe and needle and transferred into tubes containing K2EDTA anticoagulant predose and at 0.5, 1, 2, 3, 4, 6, 8, 12, and 24 hours postdose. Blood was maintained on wet ice, in chilled Kryoracks, or at approximately 5° C. prior to centrifugation to obtain plasma. Centrifugation began within 1 hour of collection. Plasma was placed on dry ice prior to storage at approximately −70° C. Plasma samples, remaining test compounds, and remaining dose formulations were shipped on dry ice to the analysis site and stored at approximately −70° C. before and after analysis. Samples were analyzed using an LC/MS/MS method. Plasma concentration-time data for each dog and formulation were analyzed using a noncompartmental model assumption with WinNonlin, version 4.1 (Pharsight Corporation, Mountain View, Calif.). All calculations were based on the nominal times as actual sample collection times departed minimally from the schedule times.

[2] = Equilibrium aqueous solubility from solid; type: physicochemical; conditions: H20; room temperature overnight
Experimental: Samples of the ocinaplon salts shown above were evaluated for equilibrium aqueous solubility from solid. Duplicate samples of ocinaplon were accurately weighed and diluted to 1 ml with water to 6.83 mg/ml and 6.43 mg/ml. Duplicate samples of Ocinaplon di HCl salt were accurately weighed and diluted to 1 ml with water to 5.5 mg/ml and 6.0 mg/ml. Ocinaplon di HBr salt was accurately weighed and diluted to 1 ml with water to 6.1 mg/ml and 5.8 mg/ml. Ocinaplon disulfate salt was accurately weighed and diluted to 1 ml with water to 7.5 mg/ml and 6.5 mg/ml. Any change in pH of the water following sample addition was recorded. After equilibration at room temperature overnight the solutions were filtered and solute concentration determined by fast gradient HPLC with UV/VIS/MS detection with reference to 5, 10, 50, 100 and 250 μM analytical standards. Prior to sample filtration, filters were primed with 600 μl of sample to resolve potential adsorption problems. Both sample replicates were collected through the primed filter. Duplicate determinations were made in all cases.

[3] = Pharmacokinetics of different salt forms of ocinaplon after a single oral dose; type: in vivo; conditions: dog, plasma, male beagle dogs, 0.5% MC; for AUC(0-inf) / AUC(0-t) / Cmax: male, beagle, po
Experimental: as §1, §2
The pharmacokinetic parameters of different pyrazolopyrimidine acid salts vary in an apparently salt and compound dependent fashion. This is illustrated by a comparison of the pharmacokinetic properties of different acid salts of the pyrazolopyrimidine, ocinaplon. This study was performed in a manner similar to the study described in Example 9 hereinabove. The concentrations of the HCl, HBr and disulfate salts of ocinaplon were 3.72 mg/mL, 4.61 mg/mL and 4.95 mg/mL, respectively. All concentrations were calculated to be 3.0 mg free base/mL; the dose volume was […]. […] […] These findings exemplify and underscore the differences in pharmacokinetic profiles among these three exemplary salts of ocinaplon.

[4] = Plasma pharmacokinetic comparison of zaleplon free base and HCl salt after single oral doses; type: in vivo; conditions: male beagle dogs; for AUC(0-inf) / AUC(0-t) / Cmax / Tmax: male, beagle, dog, plasma, po
[5] = dog CTZBCG, listed as Free Base Suspension
[6] = dog CUPBEG, listed as Free Base Suspension
[7] = dog CUVBAT, listed as Free Base Suspension
[8] = single oral dose 50 mg/kg, mean (CV %)
[9] = 30 mg/kg, apparently scaled from 50 mg/kg
[10] = 50 mg/kg, single oral dose 50 mg/kg, mean (CV %)
[11] = Mean, N = 5, listed as HBr Salt Suspension
[12] = dog CUPBEG, listed as HBr Salt Suspension
[13] = dog CUVBAT, listed as HBr Salt Suspension
[14] = dog CVRCVX, listed as HBr Salt Suspension
[15] = dog CVSCCL, listed as HBr Salt Suspension
[16] = 2.5 mg HCl Salt/kg, single oral dose 2.5 mg HCl Salt/kg, Mean of 5 dogs
[17] = 2.5 mg HCl Salt/kg, single oral dose 2.5 mg HCl Salt/kg, dog CLT-2
[18] = 2.5 mg HCl Salt/kg, single oral dose 2.5 mg HCl Salt/kg, dog H0M004
[19] = 2.5 mg HCl Salt/kg, single oral dose 2.5 mg HCl Salt/kg, dog H1B108
[20] = 2.5 mg HCl Salt/kg, single oral dose 2.5 mg HCl Salt/kg, dog TDR2
[21] = 2.5 mg HCl Salt/kg, single oral dose 2.5 mg HCl Salt/kg, dog TKR-2
[22] = 5 mg/kg, single oral dose 5.0 mg Free Base/kg, Mean of 5 dogs
[23] = 5 mg/kg, single oral dose 5.0 mg Free Base/kg, dog CLT-2
[24] = 5 mg/kg, single oral dose 5.0 mg Free Base/kg, dog H0M004
[25] = 5 mg/kg, single oral dose 5.0 mg Free Base/kg, dog H1B108
[26] = 5 mg/kg, single oral dose 5.0 mg Free Base/kg, dog TDR2
[27] = 5 mg/kg, single oral dose 5.0 mg Free Base/kg, dog TKR-2

CC(=O)N(C)c1cccc(-c2ccnc3c(C(=O)c4cccs4)cnn23)c1 [Indiplon free base, N-methyl-N-{3-[3-(thiophene-2-carbonyl)-pyrazolo[1,5-a]pyrimidin-7-yl]-phenyl}acetamide, reference compound]
AUC(0-t) ([1]; Mean, N = 5, listed as Free Base Suspension): 250 ng·h/mL | AUC(0-t) [1, 5]: 408 ng·h/mL | Cmax [1, 5]: 266 ng/mL | AUC(0-t) [1, 6]: 160 ng·h/mL | Cmax [1, 6]: 106 ng/mL | Tmax [1, 6]: 60 min | AUC(0-t) [1, 7]: 125 ng·h/mL | Cmax [1, 7]: 101 ng/mL | AUC(0-t) ([1]; dog CVSCCL, listed as Free Base Suspension): 277 ng·h/mL | Cmax ([1]; male, beagle, dog, plasma, po, 5 mg/kg, Mean, N = 5, read-out: Cmax): 185 ng/mL | Tmax ([1]; male, beagle, dog, plasma, po, 5 mg/kg, Mean, N = 5, read-out: Tmax): 36 min | Tmax ([1]; male, beagle, dog, plasma, po, 5 mg/kg, dog CUVBAT, read-out: Tmax): 30 min | AUC(0-t) ([1]; male, beagle, dog, plasma, po, 5 mg/kg, dog CVRCVX, read-out: AUC0-t): 279 ng·h/mL | Cmax ([1]; male, beagle, dog, plasma, po, 5 mg/kg, dog CVRCVX, read-out: Cmax): 212 ng/mL | Tmax ([1]; male, beagle, dog, plasma, po, 5 mg/kg, dog CVRCVX, read-out: Tmax): 30 min | Cmax ([1]; male, beagle, dog, plasma, po, 5 mg/kg, dog CVSCCL, read-out: Cmax): 240 ng/mL

O=C(c1ccccn1)c1cnn2c(-c3ccncc3)ccnc12 [Ocinaplon Free base, pyridin-2-yl(7-(pyridin-4-yl)pyrazolo[1,5-a]pyrimidin-3-yl)methanone, reference compound]
Equilibrium Aqueous Solubility from Solid [2]: 0.4 mM and 0.1 mg/ml | Tmax [3, 8]: 108 min | half-life [3, 8]: 96.6 min | AUC(0-inf) [3, 9]: 37900 ng·h/mL | AUC(0-t) [3, 9]: 37600 ng·h/mL | Cmax [3, 9]: 6250 ng/mL | AUC(0-inf) [3, 10]: 63200 ng·h/mL | AUC(0-t) [3, 10]: 62500 ng·h/mL | Cmax [3, 10]: 10400 ng/mL

CC(=O)N(C)c1cccc(-c2ccnc3c(C(=O)c4cccs4)cnn23)c1 [indiplon HBr, N-methyl-N-{3-[3-(thiophene-2-carbonyl)-pyrazolo[1,5-a]pyrimidin-7-yl]-phenyl}acetamide HBr cocrystal]
Tmax compared to the free base ([1]; oral 5 mg free base/kg): not remarkably different | increase in the AUC versus free base ([1]; oral 5 mg free base/kg): 226.8% | increase in the maximum plasma concentrations achieved (Cmax) versus free base ([1]; oral 5 mg free base/kg): 69.7% | test animals with pharmaceutical profile superior to the corresponding free base ([1]; oral 5 mg free base/kg, cross-over): 5 out of 5 | AUC(0-t) [1, 11]: 567 ng·h/mL | Cmax [1, 11]: 314 ng/mL | Tmax [1, 11]: 48 min | AUC(0-t) ([1]; dog CTZBCG, listed as HBr Salt Suspension): 1130 ng·h/mL | AUC(0-t) [1, 12]: 429 ng·h/mL | Cmax [1, 12]: 253 ng/mL | AUC(0-t) [1, 13]: 291 ng·h/mL | Cmax [1, 13]: 309 ng/mL | AUC(0-t) [1, 14]: 258 ng·h/mL | Cmax [1, 14]: 227 ng/mL | AUC(0-t) [1, 15]: 725 ng·h/mL | Cmax [1, 15]: 270 ng/mL | Tmax [1, 15]: 120 min | Cmax ([1]; male, beagle, dog, plasma, po, 5 mg/kg, dog CTZBCG, read-out: Cmax): 513 ng/mL | Tmax ([1]; male, beagle, dog, plasma, po, 5 mg/kg, dog CTZBCG, read-out: Tmax): 30 min | Tmax ([1]; male, beagle, dog, plasma, po, 5 mg/kg, dog CUPBEG, read-out: Tmax): 30 min

CCN(C(C)=O)c1cccc(-c2ccnc3c(C#N)cnn23)c1.Cl [zaleplon HCl, Zaleplon Hydrochloride]
Cmax compared with the free base ([4]; oral, calculated on a mg/kg dosing basis): essentially equivalent | AUC(0-inf) [4, 16]: 2320 ng·h/mL | AUC(0-t) [4, 16]: 2310 ng·h/mL | Cmax [4, 16]: 790 ng/mL | Tmax [4, 16]: 33 min | AUC(0-inf) [4, 17]: 1820 ng·h/mL | AUC(0-t) [4, 17]: 1820 ng·h/mL | Cmax [4, 17]: 1010 ng/mL | Tmax [4, 17]: 15 min | AUC(0-inf) [4, 18]: 2010 ng·h/mL | AUC(0-t) [4, 18]: 2010 ng·h/mL | Cmax [4, 18]: 642 ng/mL | Tmax [4, 18]: 30 min | AUC(0-inf) [4, 19]: 1360 ng·h/mL | AUC(0-t) [4, 19]: 1360 ng·h/mL | Cmax [4, 19]: 587 ng/mL | Tmax [4, 19]: 60 min | AUC(0-inf) [4, 20]: 2650 ng·h/mL | AUC(0-t) [4, 20]: 2650 ng·h/mL | Cmax [4, 20]: 820 ng/mL | Tmax [4, 20]: 30 min | AUC(0-inf) [4, 21]: 3760 ng·h/mL | AUC(0-t) [4, 21]: 3720 ng·h/mL | Cmax [4, 21]: 896 ng/mL | Tmax [4, 21]: 30 min

CCN(C(C)=O)c1cccc(-c2ccnc3c(C#N)cnn23)c1 [zaleplon free base, N-[3-(3-cyanopyrazolo[1,5-a]pyrimidin-7-yl)phenyl]-N-ethylacetamide, reference compound]
Tmax ([4]; 5 mg Free Base/kg, single oral dose 5.0 mg Free Base/kg, Mean of 5 dogs): 66 min | AUC(0-inf) [4, 22]: 6940 ng·h/mL | AUC(0-t) [4, 22]: 6700 ng·h/mL | Cmax [4, 22]: 1590 ng/mL | AUC(0-inf) [4, 23]: 6860 ng·h/mL | AUC(0-t) [4, 23]: 6840 ng·h/mL | Cmax [4, 23]: 1850 ng/mL | Tmax [4, 23]: 60 min | AUC(0-inf) [4, 24]: 7000 ng·h/mL | AUC(0-t) [4, 24]: 6930 ng·h/mL | Cmax [4, 24]: 1460 ng/mL | Tmax [4, 24]: 60 min | AUC(0-inf) [4, 25]: 3760 ng·h/mL | AUC(0-t) [4, 25]: 3760 ng·h/mL | Cmax [4, 25]: 926 ng/mL | Tmax [4, 25]: 120 min | AUC(0-inf) [4, 26]: 2550 ng·h/mL | AUC(0-t) [4, 26]: 2550 ng·h/mL | Cmax [4, 26]: 1100 ng/mL | Tmax [4, 26]: 30 min | AUC(0-inf) [4, 27]: 14500 ng·h/mL | AUC(0-t) [4, 27]: 13400 ng·h/mL | Cmax [4, 27]: 2630 ng/mL | Tmax [4, 27]: 60 min
